Experimental data: US12729458B2, “Discovery and evolution of biologically active metabolites” (The Regents of the University of Colorado, a Body Corporate, priority 2020, dated 2026)
Entries after “also recorded” stand apart in the source; their conditions may differ. Read-outs that look alike come from different tables or passages of the source.

How the values were obtained:
TCPTP1-281 = assay: pNPP hydrolysis by TC-PTP lacking the α7-equivalent region; format: biochemical, H. sapiens; conditions: for change in PTP1B/TC-PTP selectivity on removal of the α7 helix (or equivalent) from both enzymes: PTP1B1-281 and TCPTP1-281 vs full constructs; for Ki: TCPTP1-281
Description: (§1) Enzyme kinetics. To examine terpenoid-mediated inhibition, we measured PTP-catalyzed hydrolysis of p-nitrophenyl phosphate (pNPP) or 4-methylumbelliferyl phosphate (4-MUP, used when KM for pNPP was large) in the presence of various concentrations of terpenoids. Each reaction included PTP (0.05 μM PTP1B/TCPTP or 0.1 μM SHP1/SHP2 in 50 mM HEPES, 0.5 mM TCEP, 50 μg/ml BSA), pNPP (0.33, 0.67, 2, 5, 10, and 15 mM) or 4-MUP (0.13, 0.27, 0.8, 2.27, 2.93, 4.53, 7.07, and 8 mM), inhibitor (with concentrations listed in the figures), buffer (50 mM HEPES pH=7.3, 50 μg/ml BSA), and DMSO at 10% v/v. We monitored the formation of p-nitrophenol by measuring absorbance at 405 nm every 10 seconds for 5 minutes on a SpectraMax M2 plate reader and the formation of 4-methylumbelliferyl by measuring fluorescence at 450 nm (370 nm ex, 435 nm cutoff, medium gain).
(§2) We used a custom MATLAB script to process all raw kinetic data. This script removed all concentration values that fell outside of either (i) the range of our standard curve (absorbance/fluorescence vs. μM; FIG. 39) or (ii) the initial rate regime (>10% of the pNPP or 4-MUP concentration used in the assay). When this step reduced kinetic dataset to fewer than ten points, we re-measured those datasets to collect at least ten. We fit final datasets, in turn, with a linear regression model (using Matlab's backslash operator).
(§3) We evaluated kinetic models in three steps: (i) We fit initial-rate measurements collected in the absence and presence of inhibitors to Michaelis-Menten and inhibition models, respectively (here, we used the nlinfit and fminsearch functions from MATLAB; TABLE 12). (ii) We used an F-test to compare the mixed model to the single-parameter model with the least sum squared error (here, we used the fedf function from MATLAB to assign p-values), and we accepted the mixed model when p<0.05. (iii) We used the Akaike's Information Criterion (AIC) to compare the best-fit single parameter model to each alternative single parameter model, and we accepted the “best-fit” model when the difference in AIC (Δi) exceed 5 for all comparisons.^78 We note: For AD, AB, and (+) 1-(10),4-cadinadiene this criterion was not met; both noncompetitive and uncompetitive models, however, yielded indistinguishable ICso's.
(§4) We used the MATLAB function “nlparci” to determine the confidence intervals of kinetic parameters, and we propagated those intervals to estimate corresponding confidence intervals for each IC50.

PTP1B [1] = target: T1, PTP1B (Homo sapiens, UniProt P18031); assay: X-ray crystallography of PTP1B soaked with ligand; format: binding, H. sapiens
T1 construct: In this study, we used a well-studied truncation variant (i.e., PTP1B1-321); His-tag; made in house; host or cells: E. coli BL21 (DE3), pET21b
T1 sequence (P18031 1-321): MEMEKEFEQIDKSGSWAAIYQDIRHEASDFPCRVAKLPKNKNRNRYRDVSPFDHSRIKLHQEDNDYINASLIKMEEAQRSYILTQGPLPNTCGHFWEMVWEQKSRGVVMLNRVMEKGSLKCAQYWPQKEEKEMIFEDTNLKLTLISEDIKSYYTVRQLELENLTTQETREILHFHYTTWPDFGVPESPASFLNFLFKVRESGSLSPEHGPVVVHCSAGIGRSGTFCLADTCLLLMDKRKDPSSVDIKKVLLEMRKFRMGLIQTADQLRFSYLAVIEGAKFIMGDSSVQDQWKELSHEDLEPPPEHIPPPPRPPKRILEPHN
Description: X-ray crystallography. We prepared crystals of PTP1B by using hanging drop vapor diffusion. In brief, we added 2 μL of PTP1B (~600 μM PTP1B, 50 mM HEPES, pH 7.3) to 6 μL of crystallization solution (100 mM HEPES, 200 mM magnesium acetate, and 14% polyethylene glycol 8000, pH 7.5) and incubated the resulting droplets over crystallization solution for one week at 4° C. (EasyXtal CrystalSupport, Qiagen). We soaked crystals with ligand by transferring them to droplets formed with 6 μL of crystallization solution and 1 μL of ligand solution (10 mM in DMSO), which we incubated for 2-5 days at 4° C. We prepared all […] for freezing by soaking them in cryoprotectant formed from a 70/30 (v/v) mixture of buffer (100 mM HEPES, 200 mM magnesium acetate, and 25% polyethylene glycol 8000, pH 7.5) and glycerol.
We collected X-ray diffraction data through the Collaborative Crystallography Program at Lawrence Berkeley National Lab (ALS ENABLE, beamline 8.2.1, 100 K, 1.00003 Å). We performed integration, scaling, and merging of X-ray diffraction data using the xia2 software package^79, and we carried out molecular replacement and structure refinement with the PHENIX graphical interface,^80 supplemented with manual model adjustment in COOT^81 and one round of PDB-REDO^82 (the latter, only for the PTP1B-AD complex).

[2] = target: T2, TC-PTP (TCPTP1-317; TCPTP292 in FIG. 12) (Mus musculus, UniProt Q06180); assay: TC-PTP-catalyzed hydrolysis of pNPP in the presence of terpenoids; format: biochemical, H. sapiens; conditions: TCPTP1-317
T2 construct: His-tag; made in house; host or cells: E. coli BL21 (DE3), pET16b
T2 sequence (Q06180 1-317): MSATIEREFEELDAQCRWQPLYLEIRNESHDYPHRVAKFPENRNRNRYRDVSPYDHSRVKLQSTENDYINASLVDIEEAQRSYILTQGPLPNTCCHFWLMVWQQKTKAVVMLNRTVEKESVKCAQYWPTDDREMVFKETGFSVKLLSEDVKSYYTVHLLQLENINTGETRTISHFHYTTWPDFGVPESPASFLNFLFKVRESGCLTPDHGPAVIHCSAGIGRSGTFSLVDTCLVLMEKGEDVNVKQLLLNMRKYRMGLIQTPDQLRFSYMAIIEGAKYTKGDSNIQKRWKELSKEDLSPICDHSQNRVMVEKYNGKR
Description: as §1, §2, §3, §4

PTP1B [3] = target: T3, PTP1B (Homo sapiens, UniProt P18031); assay: Ligand efficiency (TABLE 15); parameters: species or system H. sapiens; conditions: for IC50: PTP1B, the patent's own terpenoid inhibitors
T3 sequence (P18031 1-321 limits assumed): T1 sequence (P18031 1-321)

SHP1 = target: T4, SHP1 (Homo sapiens, UniProt P29350); assay: SHP1-catalyzed hydrolysis of 4-MUP in the presence of terpenoids; format: biochemical, H. sapiens
T4 construct: made in house; host or cells: E. coli BL21 (DE3)
Description: as §1
as §2, with “operator). […]” for “operator).”

[4] = competitive model of inhibition, read-out: Fit par. Ki, competitive model
[5] = mixed model, uncompetitive constant, read-out: Fit par. Ki,u, mixed model
[6] = noncompetitive model of inhibition, read-out: Fit par. Ki, noncompetitive model
[7] = uncompetitive model of inhibition, read-out: Fit par. Ki, uncompetitive model
[8] = mixed model, competitive constant, read-out: Fit par. Ki,c, mixed model

T4 sequence (P29350 whole entry): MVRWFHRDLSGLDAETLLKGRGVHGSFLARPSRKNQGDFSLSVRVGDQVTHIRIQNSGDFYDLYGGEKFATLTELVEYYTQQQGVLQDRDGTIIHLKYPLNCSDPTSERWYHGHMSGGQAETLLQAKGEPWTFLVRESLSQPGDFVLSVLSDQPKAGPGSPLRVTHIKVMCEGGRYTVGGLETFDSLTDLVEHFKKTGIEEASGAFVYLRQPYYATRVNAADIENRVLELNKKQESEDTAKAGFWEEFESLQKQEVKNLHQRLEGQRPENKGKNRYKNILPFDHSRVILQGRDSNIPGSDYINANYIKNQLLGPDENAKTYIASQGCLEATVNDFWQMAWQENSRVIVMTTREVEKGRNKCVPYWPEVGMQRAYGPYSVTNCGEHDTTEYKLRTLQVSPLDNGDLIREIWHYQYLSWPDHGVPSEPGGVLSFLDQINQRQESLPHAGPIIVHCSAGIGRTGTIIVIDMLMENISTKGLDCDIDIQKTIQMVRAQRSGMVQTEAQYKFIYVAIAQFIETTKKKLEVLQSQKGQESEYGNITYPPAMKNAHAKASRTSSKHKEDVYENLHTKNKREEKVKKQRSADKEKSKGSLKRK

SMILES	change in PTP1B/TC-PTP selectivity on removal of the α7 helix (or equivalent) from both enzymes (TCPTP1-281; listed as AD)	Ki (TCPTP1-281; [4]) [µM]	Ki (TCPTP1-281; [5]) [µM]	Ki (TCPTP1-281; [6]) [µM]	Ki (TCPTP1-281; [7]) [µM]	binding site on PTP1B (crystal structure) (PTP1B [1]; crystal soaked with ligand, pdb entry 6W30)	Ki [2, 5] [µM]	Ki [2, 6] [µM]	Ki [2, 7] [µM]	ligand efficiency (PTP1B [3]; (−2.303RT)/HAC * log(IC50)) [kcal/mol-atom]	IC50 (PTP1B [3]) [µM]	ligand efficiency (PTP1B [3]; TABLE 15)	inhibition of SHP1 (SHP1)	change in PTP1B/TC-PTP selectivity on removal of the α7 helix (or equivalent) from both enzymes (TCPTP1-281; listed as AB)	Ki (TCPTP1-281; [8]) [µM]	solubility (crystal soaking experiments) (PTP1B [1])	Ki [2, 8] [µM]
C=C(C)[C@@H]1CC[C@@H](C)[C@@H]2CCC(C)=C[C@@H]21 [amorphadiene]	four-fold; also recorded: reduces the selectivity	87.2	356	400	356	binds to the same allosteric site targeted by benzbromarone derivatives	356	400	356	0.39	50	high	too weak to measure	–	–	–	–
CC(C)=CCC=C(C)C1CC=C(C)CC1 (stereo not drawn) [α-bisabolene]	–	13.7	69.3	76.2	69.2	–	69.3	76.2	69.2	0.44	13	high	low potency	insensitive and not	3610	poor solubility	3610
